Like-named read-outs stand apart in the source and are kept apart here.
What was measured:
[1] = tested on: primary neuronal cultures from embryonic rat brains; experiment: Rat oscillation assay (FLIPR, neuronal calcium oscillations); assay type: cell-based
Procedure: This assay is a functional phenotypic assay designed to mimic epileptic seizures using primary neuronal cultures from embryonic rat brains, which form a functional neuronal network that generate synchronized intracellular calcium concentration oscillations when cultured at high density in 384-well plate. The epileptic phenotype is induced by incubating the neurons in magnesium-free assay buffer, that results in increased probability of NMDA receptor activation, leading to an increased frequency and amplitude of intracellular calcium oscillations. Once neurons are incubated with the calcium indicator dye Fluo-8 AM (Tebu-bio), neuronal calcium oscillations can be monitored in real time using FLIPR® Tetra (fluorometric plate reader, Molecular Devices). With these recordings, the effect of anti-epileptic drugs can be quantified. The anti-epileptic effect of compounds, which activate directly or indirectly the Kv7 channels can be modulated by the Kv7 channel blocker XE-991. The assay was performed as described previously (Pacico N, Mingorance-Le Meur A. New In Vitro Phenotypic Assay for Epilepsy: Fluorescent Measurement of Synchronized Neuronal Calcium Oscillations. PLoS ONE 9(1) 2014) with modifications described hereafter.
Animal care followed standard procedures in accordance with swiss institutional guidelines. Dissociated neuronal cultures were obtained from cerebral cortices of embryonic Wistar rats at embryonic stage E18 (Charles River). The uterine horns were removed by caesarian surgery from deeply anesthetized rats (Isofurane) and sacrificed by decapitation. The embryos were decapitated by closing forceps. The brains were isolated and dissected one by one in ice-cold PBS (Life Technologies) under optical control using a binocular. Meninges, olfactory bulbs, and basal ganglia were removed. Cortical hemispheres (still including the hippocampus) were cut in small pieces with tweezers and placed on ice in prechilled Hibernate-E medium (Life technology). The hemispheres were then incubated in 10 mL of Hibernate-E containing 15 U/mL papain (Worthington) for 25 min at 30° C. with gentle mixing every 10 min. Genomic DNA was then digested by prolonging the incubation during 10 min at 37° C. in presence of 4 U/mL rDNase I (Ambion). The obtained suspension was then centrifuged at 800 g for 5 min and the cell pellet was resuspended in 2 mL Hibernate-E and gently dissociated by pipetting up and down 10 times with a plastic Pasteur pipette resulting in a homogenous cell suspension. This suspension was immediately filtered through a 70 µm cell strainer (MACS® SmartStrainer, Miltenyi), collected in 10 mL Hibernate-E and centrifuged at 800 g for 5 min. The cell pellet was resuspended in Neurobasal medium, supplemented with 2% B-27, 0.5 mM Glutamax-I, 100 U/mL penicillin, 100 µg/mL streptomycin (Life Technologies) and diluted at the final concentration of 300′000 cells/mL. One day before plating the cells, 384-well plates were coated with 25 µL/well of 0.1 % poly-L-lysine solution (Sigma), incubated overnight at 37° C., washed two times with sterile distilled water and allowed to dry at room temperature for >2 h. The neurons were seeded at a density of 15′000 cells/well in 50 µL/well in a 384-well black, clear-bottomed plates (Corning) and subsequently maintained in an incubator at 37° C., 5% CO2 and 95% humidity for 8 to 10 days. After 3 and 7 days, 40% of media was renewed under sterile conditions.
Neurons seeded in the assay plates were washed with Hank’s balanced salt solution (HBSS) devoid of Ca^2+ and Mg^2+, supplemented with 20 mM HEPES (Life Technologies) and 2 mM CaCl2 (Sigma), pH 7.4 (hereafter called Assay buffer) using a Biotek EL406 plate washer. Neurons were loaded with 1 µM Fluo-8 AM in Assay buffer for 15 min at 37° C., 5% CO2. […]

[2] = tested on: audiogenic generalized convulsive seizures in DBA/2J mice; experiment: Audiogenic seizure-sensitive mouse model of generalized convulsive seizures; assay type: in vivo; conditions: 30 mg/kg po, challenge 1h
Procedure: Compounds were formulated in a 10% polyethylene glycol 400 (PEG 400) / 90% aqueous solution of 0.5 % methylcellulose (MC 0.5%). Firstly drugs are dissolved in PEG 400 and then suspended in MC 0.5 % for oral gavage at Xmg/5 mL/kg (X see table).
• 1. Procedure: Following two days of acclimatisation, auditory seizures are induced in male juvenile DBA/2J mice (22-24 days old; Janvier Labs, France). Each mouse is placed individually in the exposure chamber, an hemispheric acrylic glass dome (diameter: 50 cm) within a sound-attenuated box. The soundattenuated box is equipped with two house lights and a camera system (Fire-I from Unibrain) in order to observe and record the behavioral seizure response. After 60 seconds of habituation, the stimulus, a mixed frequency tone of 15-20 kHz at 110 dB (SASLab Lite, Avisoft Bioacoustics), is played from a speaker that is placed on the top center of the dome. […] Seizures are classified as following: stage 0, normal behavior; stage 1, wild running; stage 2, generalized clonus; stage 3, tonic extension of the hind limbs. • 2. Compounds testing: Acute compound effects on audiogenic generalized convulsive seizures are evaluated in independent groups of 8-10 mice randomly assigned. Following oral administration of compound or vehicle, the maximum seizure stage during sound exposure is assessed. Compounds are given 1 hour before exposure to the stimulus. Each mouse is exposed to the auditory stimulus only once and euthanized afterwards by CO2 inhalation.

[3] = Rattus norvegicus, 20 min, 20 min after compound addition, AUC of fluorescence, read-out: FLIPR: IC50 [nM] 20 min
[4] = Rattus norvegicus, Cortical neurone, acute phase, ratio of AUC fluorescence before and after compound addition, rat cortical neurons, Mg-free buffer, read-out: FLIPR: IC50 [nM] acute
[5] = 20 min after compound addition, AUC of fluorescence, read-out: FLIPR: IC50 [nM] 20 min
[6] = acute phase, ratio of AUC fluorescence before and after compound addition, rat cortical neurons, Mg-free buffer, read-out: FLIPR: IC50 [nM] acute

Row | SMILES | IC50 [1, 3] | IC50 [1, 4] | Seizure stage [% vs. vehicle] [2] | IC50 [1, 5] | IC50 [1, 6]
1 | O=C(NCc1cccc(OC(F)(F)F)c1)NC12CC(C(F)(F)F)(C1)C2 [Example 23, 1-(3-Trifluoromethoxy-Benzyl)-3-(3-Trifluoromethyl-Bicyclo[1.1.1]Pent-1-yl)-Urea] | 53 nM | 75 nM | -85 % vs. vehicle |  | 
2 | O=C(NCc1ccnc(OCC(F)(F)F)c1)NC12CC(C1)C2 [Example 43, 1-Bicyclo[1.1.1]Pent-1-yl-3-[2-(2,2,2-Trifluoro-Ethoxy)-Pyridin-4-Ylmethyl]-Urea] | 967 nM | 578 nM |  |  | 
3 | O=C(NCc1cc(F)cc(C(F)(F)F)c1)NC12CC(C(F)F)(C1)C2 [Example 16, 1-(3-Difluoromethyl-bicyclo[1.1.1]pent-1-yl)-3-(3-fluoro-5-trifluoromethyl-benzyl)-urea] | 848 nM | 716 nM |  |  | 
4 | O=C(NCc1ccnc(OC(F)(F)F)c1)NC1CC(C(F)F)C1 (stereo not shown) [Example 29, 1-(3-Difluoromethyl-Cyclobutyl)-3-(2-Trifluoromethoxy-Pyridin-4-Ylmethyl)-Urea] | 2150 nM | 367 nM |  |  | 
5 | O=C(NCc1cccc(OCC(F)(F)F)c1)NC12CC(C(F)(F)F)(C1)C2 [Example 19, 1-[3-(2,2,2-Trifluoro-ethoxy)-benzyl]-3-(3-trifluoromethyl-bicyclo[1.1.1]pent-1-yl)-urea] | 111 nM | 50 nM |  |  | 
6 | O=C(NCc1cccc(OC(F)F)c1)NC1CC(C(F)F)C1 (stereo not shown) [Example 21, 1-(3-Difluoromethoxy-benzyl)-3-(3-difluoromethyl-cyclobutyl)-urea] | 942 nM | 373 nM |  |  | 
7 | CC(NC(=O)NC1CC(C(F)F)C1)c1cccc(OC(F)(F)F)c1 (stereo not shown) [Example 7, 1-(3-Difluoromethyl-cyclobutyl)-3-[1-(3-trifluoromethoxyphenyl)-ethyl]-urea] | 100 nM | 63 nM |  |  | 
8 | CC(NC(=O)NC12CC(C(F)F)(C1)C2)c1cccc(C(F)(F)F)c1 (stereo not shown) [Example 5, 1-(3-Difluoromethyl-bicyclo[1.1.1]pent-1-yl)-3-[1-(3-trifluoromethyl-phenyl)-ethyl]-urea] | 216 nM | 296 nM |  |  | 
9 | O=C(NCc1cccc(C(F)(F)F)c1)NC1CC(O)(C(F)(F)F)C1 (stereo not shown) [Example 42, 1-(3-Hydroxy-3-trifluoromethyl-cyclobutyl)-3-(3-trifluoromethyl-benzyl)-urea] | 1920 nM | 1170 nM |  |  | 
10 | CC(NC(=O)NC1CC(C(F)F)C1)c1cccc(C(F)(F)F)c1 (stereo not shown) [Example 3, 1-(3-Difluoromethyl-cyclobutyl)-3-[1-(3-trifluoromethylphenyl)-ethyl]-urea] | 334 nM | 188 nM |  |  | 
11 | O=C(NCc1ccnc(OC(F)(F)F)c1)NC12CC(C(F)(F)F)(C1)C2 [Example 30, 1-(2-Trifluoromethoxy-Pyridin-4-Ylmethyl)-3-(3-Trifluoromethyl-Bicyclo[1.1.1]Pent-1-yl)-Urea] | 1480 nM | 804 nM |  |  | 
12 | CC12CC(NC(=O)NCc3cccc(C(F)(F)F)c3)(C1)C2 [Example 39, 1-(3-Methyl-bicyclo[1.1.1]pent-1-yl)-3-(3-trifluoromethyl-benzyl)-urea] | 68 nM | 41 nM |  |  | 
13 | Cc1nc(OCC(F)(F)F)cc(C(C)NC(=O)NC23CC(C(F)(F)F)(C2)C3)n1 (racemic) [Example 34, (±)-1-{1-[2-Methyl-6-(2,2,2-Trifluoro-Ethoxy)-Pyrimidin-4-yl]-Ethyl}-3-(3-Trifluoromethyl-Bicyclo[1.1.1]Pent-1-yl)-Urea] | 291 nM | 247 nM |  |  | 
14 | CC1(NC(=O)NCc2cccc(C(F)(F)F)c2)CC(F)(F)C1 [Example 49, 1-(3,3-Difluoro-1-Methyl-Cyclobutyl)-3-(3-Trifluoromethyl-Benzyl)-Urea] | 628 nM | 247 nM |  |  | 
15 | O=C(NCc1ccnc(OCC(F)(F)F)c1)NC12CC(C(F)(F)F)(C1)C2 [Example 45, 1-[2-(2,2,2-Trifluoro-ethoxy)-pyridin-4-ylmethyl]-3-(3-trifluoromethyl-bicyclo[1.1.1]pent-1-yl)-urea] | 701 nM | 131 nM |  |  | 
16 | O=C(NCc1cccc(OC(F)F)c1)NC12CC(F)(C1)C2 [Example 20, 1-(3-Difluoromethoxy-Benzyl)-3-(3-Fluoro-Bicyclo[1.1.1]Pent-1-yl)-Urea] | 467 nM | 566 nM |  |  | 
17 | CC1(NC(=O)NC(c2cccc(C(F)(F)F)c2)C(F)F)CC(F)(F)C1 (stereo not shown) [Example 10, 1-(3,3-Difluoro-1-Methyl-Cyclobutyl)-3-[2,2-Difluoro-1-(3-TrifluoromethylPhenyl)-Ethyl]-Urea] | 51 nM | 57 nM |  |  | 
18 | O=C(NCc1ccnc(OCC(F)(F)F)c1)NC1CC(C(F)F)C1 (single isomer, unassigned) [Example 55, 1-(3-(Difluoromethyl)Cyclobutyl)-3-((2-(2,2,2-Trifluoroethoxy)Pyridin-4-yl)Methyl)Urea] |  |  |  | 1160 nM | 701 nM
19 | O=C(NC(c1cccc(C(F)(F)F)c1)C(F)F)NC12CC(C(F)F)(C1)C2 (stereo not shown) [Example 13, 1-(3-Difluoromethyl-bicyclo[1.1.1]pent-1-yl)-3-[2,2-difluoro-1-(3-trifluoromethyl-phenyl)-ethyl]-urea] | 41 nM | 14 nM |  |  | 
20 | O=C(NCc1cccc(C(F)F)c1)NC12CC(C(F)(F)F)(C1)C2 [Example 28, 1-(3-Difluoromethyl-Benzyl)-3-(3-Trifluoromethyl-Bicyclo[1.1.1]Pent-1-yl)-urea] | 203 nM | 117 nM |  |  | 
21 | C[C@H](NC(=O)NC1CC(C(F)F)C1)c1cccc(OC(F)(F)F)c1 (single isomer, unassigned) [Example 58] |  |  |  | 105 nM | 51 nM
22 | CC(NC(=O)NC12CC(C1)C2)c1cccc(OC(F)(F)F)c1 (stereo not shown) [Example 6, 1-Bicyclo[1.1.1]Pent-1-yl-3-[1-(3-Trifluoromethoxy-Phenyl)-Ethyl]-Urea] | 271 nM | 126 nM |  |  | 
23 | O=C(NCc1cccc(C(F)(F)F)c1)NC1CC(C(F)(F)F)C1 (stereo not shown) [Example 41, 1-(3-Trifluoromethyl-benzyl)-3-(3-trifluoromethyl-cyclobutyl)-urea] | 117 nM | 73 nM |  |  | 
24 | O=C(NC1CC(O)(C(F)(F)F)C1)NC(c1cccc(C(F)(F)F)c1)C(F)F (stereo not shown) [Example 9, 1-[2,2-Difluoro-1-(3-Trifluoromethyl-Phenyl)-Ethyl]-3-(3-Hydroxy-3-Trifluoromethyl-Cyclobutyl)-Urea] | 1420 nM | 766 nM |  |  | 

Source: patent US20230303486A1, “CYCLOBUTYL-UREA DERIVATIVES” (Idorsia Pharmaceuticals Ltd, priority 2020, published 2023)
